We go through eleven molecules from patent US20260337208A1, “HETEROCYCLIC DERIVATIVES AS JANUS KINASE INHIBITORS” (CHIESI FARMACEUTICI S.P.A., priority 2022, published 2026).

In one assay the target is JAK1 (Homo sapiens, UniProt P23458). Put plainly: Biochemical potency on JAK1, TR-FRET (LANCE Ultra kinase assay). The settings on record: ATP corresponding to Km; cell-free; read-out: JAK1 inhibitory activity (pIC50) (converted). The procedure, abridged:
(§1)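 ULight-JAK-1 (Tyr1023) peptide phosphorylation at Km ATP, 1.5 h r.t.; substrate solution held peptide 30/50/20/10 nM and ATP 20/0.7/0.2/12 μM, enzyme solution 0.15/0.083/0.025/0.144 ng/μL (JAK1/JAK2/JAK3/TYK2). EDTA stop, Eu-PT66 antibody TR-FRET read at 665 nm; 11-point 5-fold dilutions from 20 μM; IC50 by variable-slope fit.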
Background: In TR-FRET formats the signal depends on donor and acceptor labels being close together.

The target of the next assay is JAK2 (Homo sapiens, UniProt O60674). In words: Biochemical potency on JAK2, TR-FRET (LANCE Ultra kinase assay). The settings on record: ATP corresponding to Km; cell-free; read-out: JAK2 inhibitory activity (pIC50) (converted). The method, boiled down:
as §1

Another assay deals with T1, JAK3 (Homo sapiens, UniProt P52333).
T1 sequence (P52333 1-1124): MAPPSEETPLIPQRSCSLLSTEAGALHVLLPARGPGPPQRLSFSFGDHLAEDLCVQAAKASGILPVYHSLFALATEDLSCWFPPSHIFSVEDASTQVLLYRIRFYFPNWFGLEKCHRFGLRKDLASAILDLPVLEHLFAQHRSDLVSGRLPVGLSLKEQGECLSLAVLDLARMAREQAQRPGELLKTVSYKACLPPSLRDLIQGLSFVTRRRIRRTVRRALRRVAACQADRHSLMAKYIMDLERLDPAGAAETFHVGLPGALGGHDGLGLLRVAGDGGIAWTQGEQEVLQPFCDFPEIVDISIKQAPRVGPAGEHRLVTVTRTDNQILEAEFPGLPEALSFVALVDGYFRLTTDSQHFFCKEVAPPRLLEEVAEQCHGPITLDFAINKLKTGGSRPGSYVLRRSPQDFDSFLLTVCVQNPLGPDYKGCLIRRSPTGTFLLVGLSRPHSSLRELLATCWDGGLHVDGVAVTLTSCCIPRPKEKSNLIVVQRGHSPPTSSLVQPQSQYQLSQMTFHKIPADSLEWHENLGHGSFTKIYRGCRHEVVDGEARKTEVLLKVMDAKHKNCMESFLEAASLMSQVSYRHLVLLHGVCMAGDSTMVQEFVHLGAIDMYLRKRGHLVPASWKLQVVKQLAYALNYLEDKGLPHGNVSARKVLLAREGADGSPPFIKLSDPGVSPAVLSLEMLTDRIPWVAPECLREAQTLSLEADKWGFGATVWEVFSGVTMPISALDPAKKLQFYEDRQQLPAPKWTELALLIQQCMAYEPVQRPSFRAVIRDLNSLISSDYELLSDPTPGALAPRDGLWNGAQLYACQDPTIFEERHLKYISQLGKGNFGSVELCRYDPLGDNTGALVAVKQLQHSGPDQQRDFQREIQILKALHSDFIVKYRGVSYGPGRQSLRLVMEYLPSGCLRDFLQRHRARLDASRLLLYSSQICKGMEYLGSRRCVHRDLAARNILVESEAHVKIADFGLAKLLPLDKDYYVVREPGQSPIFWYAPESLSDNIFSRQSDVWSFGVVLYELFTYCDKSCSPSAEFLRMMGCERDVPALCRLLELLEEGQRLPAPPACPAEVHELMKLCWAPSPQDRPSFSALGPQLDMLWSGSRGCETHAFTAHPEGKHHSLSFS
In words: Biochemical potency on JAK3, TR-FRET (LANCE Ultra kinase assay). The following applies: ATP corresponding to Km; cell-free; read-out: JAK3 inhibitory activity (pIC50) (converted). The method, boiled down:
as §1

Another assay concerns the target TYK2 (Homo sapiens, UniProt P29597). In words: Biochemical potency on Tyk2, TR-FRET (LANCE Ultra kinase assay). The following applies: ATP corresponding to Km; cell-free; read-out: TYK2 inhibitory activity (pIC50) (converted). The method, boiled down:
as §1

Assay [1] relates to pSTAT6 in BEAS-2B human cell line. In words: Inhibition of IL-13 induced pSTAT6 in BEAS. It is filed as cell-based. The following applies: for IC50: Homo sapiens, BEAS-2B, 0.5 h, IL-13 trigger, 30 min, parent compound; for Fold difference parent vs predicted acid metabolite: ratio=IC50 predicted acid metabolite/IC50 ester. The procedure, abridged:
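BEAS-2B cells grown 48 h, pre-treated 30 min with compound, then stimulated 30 min with IL-13. Lysate pSTAT6 (Tyr641) measured by sandwich ELISA. Eleven 5-fold dilutions from 10 μM, in duplicate, fitted to IC50.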

Chain of JAK2 (O60674 whole entry): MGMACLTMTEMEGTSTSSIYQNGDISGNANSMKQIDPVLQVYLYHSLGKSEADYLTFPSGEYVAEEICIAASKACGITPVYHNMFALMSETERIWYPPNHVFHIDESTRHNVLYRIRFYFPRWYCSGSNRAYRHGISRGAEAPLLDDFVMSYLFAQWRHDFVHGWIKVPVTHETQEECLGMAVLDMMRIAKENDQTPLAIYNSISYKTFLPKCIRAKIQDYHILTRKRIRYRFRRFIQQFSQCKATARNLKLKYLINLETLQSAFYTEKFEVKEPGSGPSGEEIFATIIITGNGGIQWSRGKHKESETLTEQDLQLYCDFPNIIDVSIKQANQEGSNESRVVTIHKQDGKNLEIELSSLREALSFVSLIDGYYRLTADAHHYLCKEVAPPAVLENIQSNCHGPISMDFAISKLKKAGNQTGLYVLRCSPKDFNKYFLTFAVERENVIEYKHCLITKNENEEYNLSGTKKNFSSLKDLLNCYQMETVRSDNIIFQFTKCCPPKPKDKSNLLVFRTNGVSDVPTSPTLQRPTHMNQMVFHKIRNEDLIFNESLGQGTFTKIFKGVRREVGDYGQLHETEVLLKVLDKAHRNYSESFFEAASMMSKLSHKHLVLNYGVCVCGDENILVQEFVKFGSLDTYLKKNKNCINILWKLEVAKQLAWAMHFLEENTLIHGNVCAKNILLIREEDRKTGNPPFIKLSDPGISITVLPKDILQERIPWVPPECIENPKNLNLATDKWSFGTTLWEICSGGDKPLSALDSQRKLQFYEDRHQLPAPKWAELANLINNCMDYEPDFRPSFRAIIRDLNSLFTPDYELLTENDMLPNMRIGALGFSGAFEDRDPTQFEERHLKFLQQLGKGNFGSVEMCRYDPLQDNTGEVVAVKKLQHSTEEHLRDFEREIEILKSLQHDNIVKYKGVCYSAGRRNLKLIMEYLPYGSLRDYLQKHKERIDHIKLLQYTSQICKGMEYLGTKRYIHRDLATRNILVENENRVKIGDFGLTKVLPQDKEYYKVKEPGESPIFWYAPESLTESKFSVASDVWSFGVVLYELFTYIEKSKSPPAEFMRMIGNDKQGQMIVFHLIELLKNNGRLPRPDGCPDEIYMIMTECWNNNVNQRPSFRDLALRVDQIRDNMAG
Chain of TYK2 (P29597 whole entry): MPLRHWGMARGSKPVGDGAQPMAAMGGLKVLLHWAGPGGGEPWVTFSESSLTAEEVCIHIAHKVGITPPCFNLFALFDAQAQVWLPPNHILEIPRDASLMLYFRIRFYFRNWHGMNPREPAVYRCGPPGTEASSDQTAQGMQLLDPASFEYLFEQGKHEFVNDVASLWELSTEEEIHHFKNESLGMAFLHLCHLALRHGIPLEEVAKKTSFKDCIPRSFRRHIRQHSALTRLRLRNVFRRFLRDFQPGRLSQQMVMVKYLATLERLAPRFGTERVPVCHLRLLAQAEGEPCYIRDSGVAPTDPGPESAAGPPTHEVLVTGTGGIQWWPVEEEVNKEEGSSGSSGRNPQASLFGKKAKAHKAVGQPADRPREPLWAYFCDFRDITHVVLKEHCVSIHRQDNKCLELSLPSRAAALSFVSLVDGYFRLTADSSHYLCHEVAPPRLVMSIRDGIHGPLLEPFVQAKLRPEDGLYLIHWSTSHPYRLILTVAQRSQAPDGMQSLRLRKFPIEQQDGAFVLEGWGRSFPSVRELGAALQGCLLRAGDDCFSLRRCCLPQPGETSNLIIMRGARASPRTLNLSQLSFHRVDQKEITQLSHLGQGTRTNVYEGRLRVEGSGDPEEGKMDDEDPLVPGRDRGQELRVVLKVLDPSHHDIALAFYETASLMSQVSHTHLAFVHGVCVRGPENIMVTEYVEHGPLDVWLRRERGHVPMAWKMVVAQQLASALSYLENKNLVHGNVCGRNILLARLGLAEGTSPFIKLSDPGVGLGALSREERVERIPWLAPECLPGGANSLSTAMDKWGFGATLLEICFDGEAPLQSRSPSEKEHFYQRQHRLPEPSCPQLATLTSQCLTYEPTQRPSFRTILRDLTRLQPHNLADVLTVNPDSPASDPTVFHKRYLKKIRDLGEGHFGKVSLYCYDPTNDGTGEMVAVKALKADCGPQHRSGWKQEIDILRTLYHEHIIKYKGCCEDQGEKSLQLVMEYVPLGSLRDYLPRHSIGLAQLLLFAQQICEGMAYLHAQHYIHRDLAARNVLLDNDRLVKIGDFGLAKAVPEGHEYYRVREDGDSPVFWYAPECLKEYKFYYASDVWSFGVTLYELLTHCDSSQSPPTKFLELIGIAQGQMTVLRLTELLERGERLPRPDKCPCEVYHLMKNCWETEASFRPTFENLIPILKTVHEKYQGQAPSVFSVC
Chain of JAK1 (P23458 whole entry): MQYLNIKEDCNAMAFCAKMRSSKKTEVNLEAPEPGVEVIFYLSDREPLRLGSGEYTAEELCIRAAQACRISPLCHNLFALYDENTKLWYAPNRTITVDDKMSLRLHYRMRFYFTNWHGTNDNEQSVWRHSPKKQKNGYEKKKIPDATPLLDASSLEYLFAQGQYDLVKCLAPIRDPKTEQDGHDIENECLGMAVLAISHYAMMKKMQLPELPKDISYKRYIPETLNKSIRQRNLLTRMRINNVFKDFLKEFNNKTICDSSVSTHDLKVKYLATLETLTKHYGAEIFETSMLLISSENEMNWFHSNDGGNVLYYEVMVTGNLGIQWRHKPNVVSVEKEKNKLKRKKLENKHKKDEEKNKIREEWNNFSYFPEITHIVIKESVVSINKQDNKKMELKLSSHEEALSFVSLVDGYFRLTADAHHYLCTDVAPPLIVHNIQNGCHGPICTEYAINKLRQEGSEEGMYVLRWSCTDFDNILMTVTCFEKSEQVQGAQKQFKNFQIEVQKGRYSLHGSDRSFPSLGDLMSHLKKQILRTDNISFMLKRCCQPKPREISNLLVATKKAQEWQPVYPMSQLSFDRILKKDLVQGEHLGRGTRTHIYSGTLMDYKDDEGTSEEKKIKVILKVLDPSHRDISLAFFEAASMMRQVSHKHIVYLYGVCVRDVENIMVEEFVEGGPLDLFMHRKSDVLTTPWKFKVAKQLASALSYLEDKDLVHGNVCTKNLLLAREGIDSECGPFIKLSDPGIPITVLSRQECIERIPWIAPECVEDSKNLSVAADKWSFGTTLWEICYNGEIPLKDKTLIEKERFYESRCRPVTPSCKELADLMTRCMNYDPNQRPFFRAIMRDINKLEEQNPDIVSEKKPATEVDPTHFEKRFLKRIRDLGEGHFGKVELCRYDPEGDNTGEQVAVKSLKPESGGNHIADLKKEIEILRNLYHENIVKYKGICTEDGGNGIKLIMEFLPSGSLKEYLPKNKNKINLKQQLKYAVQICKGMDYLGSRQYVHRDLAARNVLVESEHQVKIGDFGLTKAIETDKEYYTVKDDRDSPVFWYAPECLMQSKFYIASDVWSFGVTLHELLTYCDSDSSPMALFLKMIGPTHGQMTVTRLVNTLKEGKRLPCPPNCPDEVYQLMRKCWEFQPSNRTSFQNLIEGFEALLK

As for `COc1cc2c(cc1-n1nc(C(=O)NCCN3CC[C@@H](C(=O)OCC(C)(C)C#N)C3)c3cnc(-c4cnn5cccnc45)cc31)OCCN2` [Example 49, 2-cyano-2-methylpropyl (R)-1-(2-(1-(6-methoxy-3,4-dihydro-2H-benzo[b][1,4]oxazin-7-yl)-6-(pyrazolo[1,5-a]pyrimidin-3-yl)-1H-pyrazolo[4,3-c]pyridine-3-carboxamido)ethyl)pyrrolidine-3-carboxylate], the IC50 on JAK1 was not above 5.01 nM; at JAK2 it was not above 5.01 nM; on JAK3 it was not above 5.01 nM; on TYK2, 5.01 to 50.1 nM; in assay [1] it was not above 5.01 nM. Further, the “Fold difference parent vs predicted acid metabolite” value in assay [1] was “kkk (200>ratio≥100)”.

For the molecule `CCOC(=O)[C@@H]1C[C@@H]2CN(CCNC(=O)c3nn(-c4cc5c(cc4OC)NCCO5)c4cc(-c5cnn6cccnc56)ncc34)C[C@@H]2C1` [Example 32], the IC50 on JAK1 is not above 5.01 nM; on JAK2 it was not above 5.01 nM; on JAK3, not above 5.01 nM; at TYK2, 5.01 to 50.1 nM; in assay [1] it was 5.01 to 50.1 nM.

As to `CCOC(=O)C1CCN(CCNC(=O)c2nn(-c3cc4c(cc3OC)NCCC4)c3cc(-c4cnn5cccnc45)ncc23)CC1` [Example 38, ethyl 1-(2-(1-(7-methoxy-1,2,3,4-tetrahydroquinolin-6-yl)-6-(pyrazolo[1,5-a]pyrimidin-3-yl)-1H-pyrazolo[4,3-c]pyridine-3-carboxamido)ethyl)piperidine-4-carboxylate], the IC50 is 5.01 to 50.1 nM at JAK1; 5.01 to 50.1 nM at JAK2; not above 5.01 nM at JAK3; 5.01 to 50.1 nM on TYK2; not above 5.01 nM in assay [1].

Take `CCOC(=O)COC(=O)Nc1nn(-c2cc3c(cc2OC)NCCO3)c2cc(-c3cnn4cccnc34)ncc12` [Example 39, ethyl 2-(((1-(6-methoxy-3,4-dihydro-2H-benzo[b][1,4]oxazin-7-yl)-6-(pyrazolo[1,5-a]pyrimidin-3-yl)-1H-pyrazolo[4,3-c]pyridin-3-yl)carbamoyl)oxy)acetate]: the IC50 was not above 5.01 nM on JAK1; not above 5.01 nM at JAK2; not above 5.01 nM on JAK3; 5.01 to 50.1 nM on TYK2; 5.01 to 50.1 nM in assay [1]. Further, the “Fold difference parent vs predicted acid metabolite” value in assay [1] is on record as “kkkk (ratio≥200)”.

Take `COC(=O)[C@H]1CCN(CCNC(=O)c2nn(-c3cc4c(cc3OC)NCCO4)c3cc(-c4cnn5cccnc45)ncc23)C1` [Example 30, methyl (S)-1-(2-(1-(6-methoxy-3,4-dihydro-2H-benzo[b][1,4]oxazin-7-yl)-6-(pyrazolo[1,5-a]pyrimidin-3-yl)-1H-pyrazolo[4,3-c]pyridine-3-carboxamido)ethyl)pyrrolidine-3-carboxylate]: the IC50 is not above 5.01 nM at JAK1; not above 5.01 nM on JAK2; not above 5.01 nM at JAK3; 5.01 to 50.1 nM at TYK2; 5.01 to 50.1 nM in assay [1]. Besides, in assay [1], the “Fold difference parent vs predicted acid metabolite” value was “kkkk (ratio≥200)”.

With `CCOC(=O)C1CCCN(CCNC(=O)c2nn(-c3cc4c(cc3OC)NCCO4)c3cc(-c4cnn5cccnc45)ncc23)C1` (centres unmarked) [Example 27, ethyl 1-(2-(1-(6-methoxy-3,4-dihydro-2H-benzo[b][1,4]oxazin-7-yl)-6-(pyrazolo[1,5-a]pyrimidin-3-yl)-1H-pyrazolo[4,3-c]pyridine-3-carboxamido)ethyl)piperidine-3-carboxylate], the IC50 at JAK1 is not above 5.01 nM; on JAK2, not above 5.01 nM; at JAK3, not above 5.01 nM; at TYK2, 5.01 to 50.1 nM; in assay [1], 5.01 to 50.1 nM.

With `CCOC(=O)[C@H]1[C@@H]2CN(CCNC(=O)c3nn(-c4cc5c(cc4OC)NCCO5)c4cc(-c5cnn6cccnc56)ncc34)C[C@@H]21` [Example 33, ethyl (1R,5S,6r)-3-(2-(1-(6-methoxy-3,4-dihydro-2H-benzo[b][1,4]oxazin-7-yl)-6-(pyrazolo[1,5-a]pyrimidin-3-yl)-1H-pyrazolo[4,3-c]pyridine-3-carboxamido)ethyl)-3-azabicyclo[3.1.0]hexane-6-carboxylate], the IC50 at JAK1 is not above 5.01 nM; on JAK2, not above 5.01 nM; on JAK3 it was not above 5.01 nM; on TYK2, 5.01 to 50.1 nM; in assay [1] it was 5.01 to 50.1 nM.

Consider `COc1cc2c(cc1-n1nc(C(=O)NCCN3CCC(C(=O)OCC4CCOCC4)CC3)c3cnc(-c4cnn5cccnc45)cc31)OCCN2` [Example 18, (tetrahydro-2H-pyran-4-yl)methyl 1-(2-(1-(6-methoxy-3,4-dihydro-2H-benzo[b][1,4]oxazin-7-yl)-6-(pyrazolo[1,5-a]pyrimidin-3-yl)-1H-pyrazolo[4,3-c]pyridine-3-carboxamido)ethyl)piperidine-4-carboxylate], for which the IC50 on JAK1 was not above 5.01 nM; on JAK2, not above 5.01 nM; on JAK3, not above 5.01 nM; at TYK2, 5.01 to 50.1 nM; in assay [1], not above 5.01 nM. The “Fold difference parent vs predicted acid metabolite” value in assay [1] is reported as “kkkk (ratio≥200)”.

Take `CCOC(=O)[C@H]1C[C@@H](OC(=O)Nc2nn(-c3cc4c(cc3OC)NCCO4)c3cc(-c4cnn5cccnc45)ncc23)C1` [Example 40, ethyl (1s,3s)-3-(((1-(6-methoxy-3,4-dihydro-2H-benzo[b][1,4]oxazin-7-yl)-6-(pyrazolo[1,5-a]pyrimidin-3-yl)-1H-pyrazolo[4,3-c]pyridin-3-yl)carbamoyl)oxy)cyclobutane-1-carboxylate]: the IC50 on JAK1 is not above 5.01 nM; on JAK2, not above 5.01 nM; on JAK3 it was not above 5.01 nM; at TYK2, 5.01 to 50.1 nM; in assay [1], 5.01 to 50.1 nM. Further, the “Fold difference parent vs predicted acid metabolite” value in assay [1] was “kk (100>ratio≥10)”.

Take `COc1cc2c(cc1-n1nc(C(=O)NCCN3CCC(C(=O)OCC(C)(C)CO)CC3)c3cnc(-c4cnn5cccnc45)cc31)OCCN2` [Example 15, 3-hydroxy-2,2-dimethylpropyl 1-(2-(1-(6-methoxy-3,4-dihydro-2H-benzo[b][1,4]oxazin-7-yl)-6-(pyrazolo[1,5-a]pyrimidin-3-yl)-1H-pyrazolo[4,3-c]pyridine-3-carboxamido)ethyl)piperidine-4-carboxylate]: the IC50 on JAK1 is not above 5.01 nM; at JAK2, not above 5.01 nM; on JAK3 it was not above 5.01 nM; at TYK2, 5.01 to 50.1 nM; in assay [1], not above 5.01 nM. Also, in assay [1], the “Fold difference parent vs predicted acid metabolite” value was “kkkk (ratio≥200)”.

In the case of `CCOC(=O)[C@@H]1CCN(CCNC(=O)c2nn(-c3cc4c(cc3OC)NCCO4)c3cc(-c4cnn5cccnc45)ncc23)C1` [Example 43, ethyl (R)-1-(2-(1-(6-methoxy-3,4-dihydro-2H-benzo[b][1,4]oxazin-7-yl)-6-(pyrazolo[1,5-a]pyrimidin-3-yl)-1H-pyrazolo[4,3-c]pyridine-3-carboxamido)ethyl)pyrrolidine-3-carboxylate], the IC50 at JAK1 was not above 5.01 nM; on JAK2, not above 5.01 nM; at JAK3, not above 5.01 nM; at TYK2, 5.01 to 50.1 nM; in assay [1], 5.01 to 50.1 nM. The “Fold difference parent vs predicted acid metabolite” value in assay [1] is reported as “kkk (200>ratio≥100)”.
